Measured values from patent US20240239829A1 (priority 2021, published 2024).
Read-outs that look alike come from different tables or passages of the source.

How the values were obtained:
[1] = for stability: compound alone, 5 mg/ml, 37° C., SGF pH 1.0, PBS pH 4.5, SIF pH 7.3, 0.5-6 hours
[2] = test system: A/PR/8/34(H1N1) influenza virus; set-up: species or system C57BL/6J mice; settings: mouse, in vivo
[3] = test system: A/H3N2/Hong Kong/1/68 influenza virus; set-up: species or system C57BL/6J mice; settings: mouse, in vivo
respiratory infection = assay: Prevention of respiratory infections of weaning piglets; type: in vivo
Text: The sick rate was about 10% and the death rate was about 5%. […] Control feed comprised 500 grams of Tilmicosin per 1000 kg. The nursery feeds were given to 763 of weaning piglets and 750 of controls from day 15 of the weaning period.

[4] = test system: human lung epithelium cell line A549; assay: Antibody binding to healthy or damaged A549 cells; type: cell-based
human fetal tissues = assay: Antibody binding to human fetal tissues (tissue array slides); settings: lung, heart, kidney, brain, pancreas, liver, thymus and testicle
Text: (§1) Further, the Regn10987 antibody from COVID-19 infected patient and fetal tissues or multiple diseased tissues of tissue array slides (purchased from US Biomax) were used to evaluate the pathogenicity of the antibody specific to the SARS-CoV-2 S1 protein. […] In addition, the Regn10987 bound broadly to the human inflammatory tissues or cancer tissues of respiratory, cardiovesvular, urinary and digestive system (FIGS. 17A and 17B). The human inflammatory diseases tested include pneumonia, bronchitis, bronchiectasis, valvular disease, rheumatoid valvular disease, myocarditis, esophagitis, gastritis, collitis, appendicitis, pancreatitis, and hepatitis. The cancer tissues tested include small cell lung carcinoma, kidney clear cell carcinoma, and myxoma.

[5] = test system: human inflammatory tissues or cancer tissues; assay: Antibody binding to human diseased tissues (tissue array slides); settings: respiratory, cardiovascular, urinary and digestive system
Text: as §1

[6] = test system: fetus and newborn mouse pups of timed-pregnant mice

For `CC(=O)N[C@H]1[C@H]([C@H](O)[C@H](O)CO)OC(O)(C(=O)O)C[C@@H]1O` (some centres unmarked) [NANA, N-acetylneuraminic acid], the stability [1] was “stable at all the pH conditions”.

For `COC(=O)[C@]1(O)CC(O)[C@@H](NC(C)=O)C(C(O)[C@H](O)CO)O1` (some centres unmarked) [NANA-Me, N-acetylneuraminic acid methyl ester], the “deaths (survival rate)” value ([2]; pH 1.5) was “ineffective”, the “deaths (survival rate)” value ([2]; pH 3.5) was “ineffective” and the “deaths (survival rate)” value ([2]; pH 4.5) was “significantly reduced deaths”. For the same compound, the “deaths (survival rate)” value ([2]; pH 7) was “ineffective”, the stability [1] was “most stable at about pH 4.5 and least stable at about pH 7.3” and the “NANA-Me stability by ratio NANA:NANA-Me” value ([1]; pH 7.4) was “most stable at NANA:NANA-Me of 1:4 and least stable at NANA:NANA-Me of 1:1”.

With `CCOC(=O)C1=C[C@@H](OC(CC)CC)[C@H](NC(C)=O)[C@@H](N)C1` [Tamiflu] the body weight [2] was “maintained better body weight”, the “deaths (survival rate)” value [2] was “significantly reduced the deaths” and the “inflammation of lung and intestine (HE stained tissue sections)” value [2] was “Severe inflammation”. For the same compound, the “lung cytokine level of IL-1β” value [2] was “remained abnormally higher”, the “lung cytokine level of IL-6” value [2] was “remained abnormally higher” and the “lung cytokine level of TNF-α” value [2] was “remained abnormally higher”. For the same compound, the “serum cytokine level of IL-6” value [2] was “significantly reduced”, the “serum cytokine level of TNF-α” value [2] was “significantly reduced” and the “deaths (survival rate)” value ([2]; listed as Tamilu) was “did not show significant effect”. The “therapeutic efficacy compared to vehicle controls” value [3] was “did not show significant efficacy”.

With `CC[C@H]1OC(=O)C[C@@H](O)[C@H](C)[C@@H](O[C@@H]2O[C@H](C)[C@@H](O)[C@H](N(C)C)[C@H]2O)[C@@H](CCN2C[C@H](C)C[C@H](C)C2)C[C@@H](C)C(=O)/C=C/C(C)=C/[C@@H]1CO[C@@H]1O[C@H](C)[C@@H](O)[C@@H](OC)[C@H]1OC` [Tilmicosin] the “Odds Ratio” value (respiratory infection; death) was 5.76 and the Death (respiratory infection; number of piglets, nursery feed for 4 days from day 15 of weaning) was 38.

With “MAb-Regn10987: naturally occurred human monoclonal antibody specific to the COVID-19 (SARS-CoV-2) S1 protein” the “binding to damaged A549 cells” value ([4]; A549 cells with missed sialic acid on the cell surface) was “strongly bound”, the “binding to healthy A549 cells” value ([4]; healthy (intact) A549 cells) was “weakly bound” and the “binding to human fetal tissues” value (human fetal tissues) was “bound”. The “binding to human inflammatory tissues or cancer tissues” value [5] was “bound broadly”, the “histological changes of lungs of mouse pups (HE)” value ([6]; mouse, in vivo) was “Acute lung inflammation and injury” and the “histology of the brains of mouse pups (HE)” value ([6]; mouse, in vivo) was “Large amount of inflammatory cells infiltration”. The “Death (%)” value ([6]; mouse, in vivo, ip) was 44.8%, the “Sick (%)” value ([6]; mouse, in vivo, ip) was 17.1% and the “Sick + Death (%)” value ([6]; mouse, in vivo, ip) was 61.9%. The “Odds Ratio” value ([6]; sick and death of mouse pups, vs saline) was 21.3.
